{
  "source": "patent US20120225417A1",
  "about": "“Methods, Compositions and Kits for the Evaluation and Preservation of Sperm” (I'Alliance Boviteq Inc., priority 2011, published 2012)",
  "assay_type_in_all_cases": "biochemical",
  "key": {"[1]": {"system": "3′-5′ cAMP-PDE activity in bovine spermatozoa", "assay": "3′-5′ cAMP-PDE assay with family-specific PDE inhibitors in bovine spermatozoa", "settings": "for Percentage of sensitive PDE activity, Cryo (B): cryopreserved bovine spermatozoa; for Percentage of sensitive PDE activity, Cryo (B) / Percentage of sensitive PDE activity, Fresh (A): Cil 10 μM, Rol 10 μM, Papa 400 nM", "protocol": "The semen was obtained from different Holstein bulls. The fresh ejaculated semen was kept in an insulated thermos flask, at 18° C., during transportation to the laboratory and processed within 3 hours after collection. The cryopreserved semen was obtained at the Centre d'Insémination […] du Québec (CIAQ) […]. The cryopreserved straws of semen were prepared according to CIAQ procedures. […] After cutting one end of the straw the semen was collected in a 15 ml falcon while cutting the other end. From this point fresh and cryopreserved semen were processed similarly. Approximately 50 μL of the semen was added to 5 mL of Talp-BSA medium in a 15 mL falcon tube to wash the spermatozoa. After centrifugation (280×g, 10 min, room temperature), the remaining pellet of approximately 100 μL was resuspended in Talp-BSA medium (500 μl for the fresh and 200 μl for two straws) to reach a concentration of 1×10^6 cells/10 μL. The samples were then vortex-agitated for 30 sec and kept on the ice until ready to run the assay. The concentration of sperm cells was measured according to hemacytometer method. The cAMP enzymatic assay (PDE assay) was conducted as previously described ([…]. et al., (2006). […] J. et al., (1979). Adv Cyclic Nucleotide Res 10, 69-92) with minor modifications. […] Measurements were also performed in the presence of PDE inhibitors: […] Cilostamide and Rolipram were purchased from Biomol. […] Each PDE assay was performed in triplicate for each experiment and each experiment was repeated at least three times. As described ([…]. et al., (2009). […] IBMX-sensitive PDE5 and PDE6 and IBMX-insensitive PDE9 activities are absent from these groups because cGMP is the specific substrate and then are not detected in the cAMP-PDE assay. […] J Dairy Sci 92, 3757-3765; […]., et al. (2007). Endocrinology 148, 1858-1867; Siuciak, J. A. et al., (2006). Neuropharmacology 51, 386-396)."}, "[2]": {"system": "3′-5′ cAMP-PDE activity in bovine testis, caput, cauda and seminal vesicles homogenates", "assay": "3′-5′ cAMP-PDE assay in bovine testis, caput, cauda and seminal vesicles homogenates", "settings": "Rol 10 μM, Papa 400 nM (FIG. 3)", "protocol": "After thoroughly vortex-agitating for about one minute, samples were centrifuged at 10 000×g for 4 minutes at room temperature. Supernatant fluid was collected and diluted in different volumes of hypotonic buffer depending on the tissue. Testis, caput and cauda homogenates were diluted in 1 mL of hypotonic buffer while seminal vesicle homogenates were diluted in 2 mL of hypotonic buffer. Homogenates were kept on ice until subjected to PDE assay. The cAMP enzymatic assay (PDE assay) was conducted as previously described ([…]. et al., (2006). BMC developmental biology 6, 47). […] J. et al., (1979). Adv Cyclic Nucleotide Res 10, 69-92) with minor modifications. […] Measurements were also performed in the presence of PDE inhibitors: […] Cilostamide and Rolipram were purchased from Biomol. […] Each PDE assay was performed in triplicate for each experiment and each experiment was repeated at least three times. As described ([…]. et al., (2009). […] IBMX-sensitive PDE5 and PDE6 and IBMX-insensitive PDE9 activities are absent from these groups because cGMP is the specific substrate and then are not detected in the cAMP-PDE assay. […] J Dairy Sci 92, 3757-3765; […]., et al. (2007). Endocrinology 148, 1858-1867; Siuciak, J. A. et al., (2006). Neuropharmacology 51, 386-396)."}, "[3]": {"system": "3′-5′ cAMP-PDE activity in bovine seminal plasma", "assay": "3′-5′ cAMP-PDE assay with family-specific PDE inhibitors in bovine seminal plasma", "settings": "thawed bovine seminal plasma, papaverine 400 nM (FIG. 8)", "protocol": "Fresh ejaculated bovine sperm, at known concentrations, was transported for three hours at 18° C. Upon arrival specimens were centrifuged at 400×g during 10 minutes at room temperature to gently pull down spermatozoa. Supernatant was transferred and centrifuged again at 6 000×g at 4° C. during 20 minutes to pull down any remaining spermatozoa. Supernatant was then transferred and centrifuged at 6 000×g at 4° C. during 20 minutes to remove any remaining debris. Seminal plasma (SP) samples were kept on ice until used for PDE assay and stored at −80° C. for further characterization.\nThe cAMP enzymatic assay (PDE assay) was conducted as previously described (Sasseville, M. et al., (2006). BMC developmental biology 6, 47). Samples were directly subjected to PDE assay. 3′-5′ cAMP-PDE activity was assessed at 34° C. in 200 μL final volume using 1 μM cAMP as substrate (Thompson, W. J. et al., (1979). Adv Cyclic Nucleotide Res 10, 69-92) with minor modifications. […] Knowing the exact concentrations of spermatozoa in each SP sample, total 3′-5′ cAMP-PDE activity was reported as the quantity of cAMP (fMol) hydrolysed per minute per the number of spermatozoa (fMol/min/10^6 spz). […] To determine which PDE family contributes to total 3′-5′ cAMP-PDE activity, the activity measured in the presence of the respective inhibitors was subtracted from the total. […]"}},
  "data": [
    {"smiles": "COc1ccc(Cc2nccc3cc(OC)c(OC)cc23)cc1OC", "note": "[Papaverine]", "values": [
      {"measurement": "Percentage of family specific sensitive PDE activity, 3 h Egg yolk", "setting": "[1]; bovine spermatozoa after 3 h in egg yolk based cryoprotectant at 18° C.", "result": 60, "unit": "%"},
      {"measurement": "Percentage of family specific sensitive PDE activity, 3 h Liquid semen", "setting": "[1]; bovine spermatozoa after 3 h in liquid semen extender at 18° C.", "result": 56, "unit": "%"},
      {"measurement": "Percentage of family specific sensitive PDE activity, 3 h 4° C.", "setting": "[1]; bovine spermatozoa after 3 h in seminal plasma at 4° C.", "result": 60, "unit": "%"},
      {"measurement": "Percentage of family specific sensitive PDE activity, 3 h 18° C.", "setting": "[1]; bovine spermatozoa after 3 h in seminal plasma at 18° C.", "result": 59, "unit": "%"},
      {"measurement": "Percentage of family specific sensitive PDE activity, Fresh", "setting": "[1]; bovine spermatozoa rapidly after ejaculation (0 h)", "result": 57, "unit": "%"},
      {"measurement": "Percentage of total PDE activity sensitive to the inhibitor", "setting": "[1]; bovine spermatozoa, 1 μM cAMP, IBMX 1 mM, cilostamide 10 μM, rolipram 10 μM, papaverine 400 nM (FIG. 12B)", "result": 55, "unit": "%"},
      {"measurement": "Percentage of sensitive PDE activity, Cryo (B)", "setting": "[1]; IBMX 1 mM", "result": 50, "unit": "%"},
      {"measurement": "Percentage of sensitive PDE activity, Cryo (B)", "setting": "[1]; IBMX 1 mM, listed as papaverine", "result": 49.8, "unit": "%"},
      {"measurement": "Share of 3′-5′ cAMP-PDE activity inhibited (papaverine-sensitive)", "setting": "[1]; freshly ejaculated bovine spermatozoa, papaverine 400 nM (FIG. 21)", "result": "more than 50%"},
      {"measurement": "Percentage of sensitive PDE activity, Fresh (A)", "setting": "[1]; freshly ejaculated bovine spermatozoa, IBMX 1 mM", "result": 57, "unit": "%"},
      {"measurement": "Percentage of sensitive PDE activity, Fresh (A)", "setting": "[1]; freshly ejaculated bovine spermatozoa, IBMX 1 mM, listed as papaverine", "result": 57.1, "unit": "%"},
      {"measurement": "Inhibitor-sensitive PDE activity in bovine male reproductive tissues (in words)", "setting": "[2]", "result": "low percentage"},
      {"measurement": "Share of PDE activity in bovine seminal plasma that is papaverine-sensitive", "setting": "[3]", "result": "more than 50%"}
    ]}
  ]
}
